Source: patent US9011853B2, “B7-H4 fusion proteins and methods of use thereof” (Amplimmune, Inc., priority 2009, dated 2015)

Key:
[1] = system: CD4^+CD62L^+ naïve T cells; test: In vitro induction of iTreg cells, FACS for FoxP3/CD25; assay type: cell-based, mouse; conditions: SJL naïve T cells, 10 ng/mL TGF-β and 50 U/mL IL-2; 0, 1, 5 or 10 μg/mL (control IgG 10 μg/ml)
Protocol: CD4^+CD62L^+ naïve T cells were first labeled with CFSE (5 μM) for 10 min at room temperature. The dye was quenched by the addition of 0.5 volumes of ice-cold fetal calf serum. The cells were incubated on ice for 5 min followed by centrifugation to collect the cell pellet. The cells were washed 2 more times in HL-1 culture media. The cells were then cultured in the presence of TGF-β (10 ng/mL) and IL-2 (10, 50, 100 U/mL) for 3 days before intracellular staining with anti-FoxP3 APC. FACS analysis was conducted to detect the FoxP3^+, in vitro expanded iTreg cells.
Therefore, it was next examined if B7-H4-Ig treatment of naïve CD4^+CD62L^+ T cells in the presence of inducible Treg (iTreg) cell-promoting conditions would results in an increase in the numbers of CD4^+CD25^+FoxP3^+ iTreg cells. First the in vitro iTreg induction culture conditions were optimized to allow for experimental conditions to assess what additional effect, if any, B7-H4-Ig has on iTreg induction. CD4^+ T cells were isolated from female SJL mice. Purified mouse CD4^+CD62L^+ T cells were first labeled with CSFE and induced to iTreg cells in the presence of TGF-β (10 ng/mL) and IL-2 at concentrations of 0, 50 or 100 U/mL. FACS analysis was performed 3 days later to detect FoxP3 expression and CFSE content. A FoxP3 positive and CFSE diluted cell population was detected when using 100 U/mL of IL-2 for iTreg differentiation. […]

[2] = Clearance from circulation; assay type: in vivo; conditions: compared with control IgG
[3] = system: CTLA4KD/BDC2.5/NOD mice; test: Autoimmune diabetes in CTLA4KD/BDC2.5/NOD mice; assay type: in vivo, mouse
Protocol: CTLA4 KD/NOD mice (Chen, et al., PNAS (2006)) were bred with BDC2.5 TCR transgenic mice (Katz, et al., Cell, 74(6):1089-100 (1993)). Both female and male mice at age of 11 weeks were randomly assigned into experimental groups: vehicle (3 mice), and B7-H4-Ig (5 mice). Mice were treated with B7-H4-Ig 3 times per week for 4 weeks (15 mg/kg, per i.p. injection), and monitored 3 times per week for glucose content in the urine first with Diastix. […] Diabetes was determined when blood glucose reached ≧600 mg/dL.

[4] = system: CD4^+ T cells, Treg cells, effector/memory CD4^+ T cells; test: T cell subsets in spleen, draining lymph nodes and CNS of R-EAE mice (FACS, immunochemical staining); assay type: in vivo, mouse
Excerpt: Mice were anesthetized with nembutal and perfused with phosphate-buffered saline (PBS). Brains and spinal cords from each mouse were frozen in OCT (Miles Laboratories; Elkhart, Ind.) in liquid nitrogen. Tissue from the lower lumbar region of the spinal cord was sectioned at 6 μm on a Reichert-Jung 1800 cryotome and mounted on Superfrost Plus electrostatically charged slides. Cross-sections (10 μm thick for brains and 6 μm for spinal cords) from longitudinal sections of brain and spinal cord were performed. Tissues were stained with biotin-conjugated antibody to mouse CD4, PLP and FoxP3. Positive staining of biotinylated antibodies was visualized by a Tyramide Signal Amplification (TSA) Direct kit (NEN, Boston, Mass.) according to manufacturer's instructions and fluorescein anti-mouse IgG (Vector Laboratories). Sections were counterstained with 4,6-diamidino-2-phenylindole (DAPI; Sigma-Aldrich) and then coverslipped with Vectashieldmounting medium (Vector Laboratories). Slides were examined and images were acquired via epifluorescence using the SPOT RT camera (Diagnostic Instruments, Sterling Heights, Mich.). Sections from each group were analyzed at 40 or 100× magnification.
The effect of B7-H4-Ig treatment on the number of Treg cells in vivo was analyzed in this study. The effect of B7-H4-Ig on the number and phenotype of CD4^+ T cells infiltrating into the CNS following B7-H4-Ig treatment, the relevant site for activity in vivo, was determined. […] SJL mice were first immunized with PLP139-151 peptide. B7-H4-Ig treatment started during remission (Day 23). Mice received mouse Control IgG, 100 μg, or B7-H4-Ig at either 60 or 300 μg, 3 times per week for 2 weeks or 4 weeks. Half of the animals (5 mice from each group) were euthanized on Day 35, after 6 doses of B7-H4-Ig. The rest of the animals (5 mice from each group) were euthanized on Day 50, after 12 doses of B7-H4-Ig. Mouse spleens, draining lymph nodes, spinal cords and brains were collected, tissues were made into a single cell suspension and counted via the use of a hemocytometer, and analyzed for the presence of effector/memory CD4^+ T cells (CD4^+CD44^+) and Treg cells (CD4^+CD25^+FoxP3^+). Whole cerebellar and lumbar spinal cord tissue samples were snap frozen and processed as described above to analyze the number of CD4^+ and FoxP3^+ cells present within the CNS by histology.
Cells isolated from spleen, draining lymph node and also lumbar spinal cord were stained for CD4, CD44 and FoxP3 followed by FACS analysis to obtain the number of total CD4^+ T cells, Treg (CD4^+/Foxp3^+) and effector/memory CD4^+ T cells (CD4^+/CD44^+). The data is presented in FIGS. 43A, 43B, and 43C as the mean number of cells for each phenotype from individual mouse. […] Similar data was obtained after the full course of 12 treatments.

## B7-H4-Ig: B7-H4 extracellular domain fused to Ig Fc; bare label is the human protein in Example 3, murine protein in Examples 1, 2, 5, 7-11
[1]
  percentage of FoxP3+CD25+ iTregs: increased the percentage of FoxP3^+CD25^+ iTregs in a dose-dependent manner
[2]
  clearance from circulation: cleared from circulation more rapidly than control IgG
[3]; 15 mg/kg i.p. 3 times per week for 4 weeks from age 11 weeks (FIG. 50)
  autoimmune diabetes (blood glucose ≧600 mg/dL): delayed autoimmune diabetes
[3]; 15 mg/kg i.p. 3 times per week for 4 weeks from age 11 weeks, 10 weeks post treatment
  age until which treated mice did not develop diabetes: 21 weeks old
[4]; FIG. 43C
  amount of Treg cells in the CNS: appeared constant
[4]; R-EAE mice treated during remission (FIGS. 43A, 43B)
  number of Treg (CD4+/FoxP3+) cells within the spleen and lymph node: remarkably increased
[4]; control IgG vs B7-H4-Ig treated mice
  level of demyelination via anti-PLP staining: no significant difference in the level of demyelination
[4]; lumbar spinal cord cross sections
  number of FoxP3+ cells within the CNS (histology): increases the number of FoxP3^+ cells within the CNS
[4]; vs Control IgG injected mice (FIG. 44)
  percentage of Treg cells among CD4+ T cells in the CNS: significantly higher
[4]; vs Control IgG treated mice (FIG. 43C)
  effector/memory T cells (CD4+/CD44+) within the CNS: decreased
